Results reported in PMC11374673, “Discovery of isoquinoline sulfonamides as allosteric gyrase inhibitors with activity against fluoroquinolone-resistant bacteria” (Nature Chemistry, 2024).
Where “and” joins values, the source holds several entries; their conditions need not be identical. Identical values can stand only once.

Tested on: E. coli
Test: Checkerboard assay LEI-800 with CIP;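 note: bacterial growth read as OD600 after 20 h at 37 °C with shaking, each drug pair tested in triplicate wells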
Assay type: cell-based, Escherichia coli
[1] = Ciprofloxacin 0.78125 nM + LEI-800 0 µM
[2] = Ciprofloxacin 0.78125 nM + LEI-800 0.1 µM
[3] = Ciprofloxacin 0.78125 nM + LEI-800 0.2 µM
[4] = Ciprofloxacin 0.78125 nM + LEI-800 0.4 µM
[5] = Ciprofloxacin 0.78125 nM + LEI-800 0.8 µM
[6] = Ciprofloxacin 0.78125 nM + LEI-800 3.1 µM
[7] = Ciprofloxacin 0.78125 nM + LEI-800 6.2 µM
[8] = Ciprofloxacin 1.5625 nM + LEI-800 0 µM
[9] = Ciprofloxacin 1.5625 nM + LEI-800 0.1 µM
[10] = Ciprofloxacin 1.5625 nM + LEI-800 0.2 µM
[11] = Ciprofloxacin 1.5625 nM + LEI-800 0.4 µM
[12] = Ciprofloxacin 1.5625 nM + LEI-800 0.8 µM
[13] = Ciprofloxacin 1.5625 nM + LEI-800 3.1 µM
[14] = Ciprofloxacin 1.5625 nM + LEI-800 6.2 µM
[15] = Ciprofloxacin 12.5 nM + LEI-800 0.2 µM
[16] = Ciprofloxacin 12.5 nM + LEI-800 0.4 µM
[17] = Ciprofloxacin 25 nM + LEI-800 0 µM
[18] = Ciprofloxacin 25 nM + LEI-800 0.1 µM
[19] = Ciprofloxacin 25 nM + LEI-800 0.2 µM
[20] = Ciprofloxacin 25 nM + LEI-800 0.4 µM
[21] = Ciprofloxacin 25 nM + LEI-800 0.8 µM
[22] = Ciprofloxacin 25 nM + LEI-800 3.1 µM
[23] = Ciprofloxacin 25 nM + LEI-800 6.2 µM
[24] = Ciprofloxacin 50 nM + LEI-800 0 µM
[25] = Ciprofloxacin 50 nM + LEI-800 0.1 µM
[26] = Ciprofloxacin 50 nM + LEI-800 0.2 µM
[27] = Ciprofloxacin 50 nM + LEI-800 0.4 µM
[28] = Ciprofloxacin 50 nM + LEI-800 0.8 µM
[29] = Ciprofloxacin 50 nM + LEI-800 3.1 µM
[30] = Ciprofloxacin 50 nM + LEI-800 6.2 µM

`O=C(O)c1cn(C2CC2)c2cc(N3CCNCC3)c(F)cc2c1=O` [CIP, ciprofloxacin] was tested, and the “checkerboard plate reading, Average values” [1] was 0.83, the “checkerboard plate reading, replicate wells” value [1] was 0.8643 and 0.836 and 0.7898 and the “checkerboard plate reading, Average values” [2] was 0.7281. The “checkerboard plate reading, replicate wells” value [2] was 0.7059 and 0.7562 and 0.7221, the “checkerboard plate reading, Average values” [3] was 0.6917 and the “checkerboard plate reading, replicate wells” value [3] was 0.6798 and 0.723 and 0.6723. The “checkerboard plate reading, Average values” [4] was 0.6669, the “checkerboard plate reading, replicate wells” value [4] was 0.6638 and 0.6554 and 0.6815 and the “checkerboard plate reading, Average values” [5] was 0.5857. The “checkerboard plate reading, replicate wells” value [5] was 0.6064 and 0.5755 and 0.5753, the “checkerboard plate reading, Average values” [6] was 0.2755 and the “checkerboard plate reading, replicate wells” value [6] was 0.2688 and 0.2609 and 0.2967. The “checkerboard plate reading, Average values” [7] was 0.1492, the “checkerboard plate reading, replicate wells” value [7] was 0.1443 and 0.151 and 0.1523 and the “checkerboard plate reading, Average values” (Ciprofloxacin 0.78125 nM + LEI-800 […]) was 0.4707. For the same compound, the “checkerboard plate reading, Average values” [8] was 0.8174, the “checkerboard plate reading, replicate wells” value [8] was 0.9018 and 0.7912 and 0.7592 and the “checkerboard plate reading, Average values” [9] was 0.71. The “checkerboard plate reading, replicate wells” value [9] was 0.7109 and 0.704 and 0.715, the “checkerboard plate reading, Average values” [10] was 0.6776 and the “checkerboard plate reading, replicate wells” value [10] was 0.667 and 0.7085 and 0.6572. For the same compound, the “checkerboard plate reading, Average values” [11] was 0.6371, the “checkerboard plate reading, replicate wells” value [11] was 0.6099 and 0.644 and 0.6575 and the “checkerboard plate reading, Average values” [12] was 0.5615. The “checkerboard plate reading, replicate wells” value [12] was 0.5364 and 0.5772 and 0.571, the “checkerboard plate reading, Average values” [13] was 0.2706 and the “checkerboard plate reading, replicate wells” value [13] was 0.2674 and 0.2638 and 0.2807. For the same compound, the “checkerboard plate reading, Average values” [14] was 0.1458, the “checkerboard plate reading, replicate wells” value [14] was 0.1385 and 0.1476 and 0.1513 and the “checkerboard plate reading, Average values” (Ciprofloxacin 1.5625 nM + LEI-800 […]) was 0.4578. The “checkerboard plate reading, Average values” (Ciprofloxacin 3.125 nM + LEI-800 0 µM) was 0.7916, the “checkerboard plate reading, Average values” (Ciprofloxacin 3.125 nM + LEI-800 0.1 µM) was 0.7539 and the “checkerboard plate reading, Average values” (Ciprofloxacin 3.125 nM + LEI-800 0.2 µM) was 0.6934. For the same compound, the “checkerboard plate reading, Average values” (Ciprofloxacin 3.125 nM + LEI-800 0.4 µM) was 0.6265, the “checkerboard plate reading, Average values” (Ciprofloxacin 3.125 nM + LEI-800 0.8 µM) was 0.5829 and the “checkerboard plate reading, Average values” (Ciprofloxacin 3.125 nM + LEI-800 3.1 µM) was 0.2713. The “checkerboard plate reading, Average values” (Ciprofloxacin 3.125 nM + LEI-800 6.2 µM) was 0.1411, the “checkerboard plate reading, Average values” (Ciprofloxacin 3.125 nM + LEI-800 […]) was 0.464 and the “checkerboard plate reading, Average values” (Ciprofloxacin 6.25 nM + LEI-800 0 µM) was 0.8039. The “checkerboard plate reading, Average values” (Ciprofloxacin 6.25 nM + LEI-800 0.1 µM) was 0.6899, the “checkerboard plate reading, Average values” (Ciprofloxacin 6.25 nM + LEI-800 0.2 µM) was 0.6258 and the “checkerboard plate reading, Average values” (Ciprofloxacin 6.25 nM + LEI-800 0.4 µM) was 0.6515. For the same compound, the “checkerboard plate reading, Average values” (Ciprofloxacin 6.25 nM + LEI-800 0.8 µM) was 0.573, the “checkerboard plate reading, Average values” (Ciprofloxacin 6.25 nM + LEI-800 3.1 µM) was 0.2841 and the “checkerboard plate reading, Average values” (Ciprofloxacin 6.25 nM + LEI-800 6.2 µM) was 0.1541. The “checkerboard plate reading, Average values” (Ciprofloxacin 6.25 nM + LEI-800 […]) was 0.4469, the “checkerboard plate reading, Average values” (Ciprofloxacin 12.5 nM + LEI-800 0 µM) was 0.8165 and the “checkerboard plate reading, Average values” (Ciprofloxacin 12.5 nM + LEI-800 0.1 µM) was 0.6889. The “checkerboard plate reading, Average values” [15] was 0.6272, the “checkerboard plate reading, replicate wells” value [15] was 0.6163 and the “checkerboard plate reading, Average values” [16] was 0.6342. For the same compound, the “checkerboard plate reading, replicate wells” value [16] was 0.6092 and 0.6266 and 0.6669, the “checkerboard plate reading, Average values” (Ciprofloxacin 12.5 nM + LEI-800 0.8 µM) was 0.6048 and the “checkerboard plate reading, Average values” (Ciprofloxacin 12.5 nM + LEI-800 3.1 µM) was 0.2553. The “checkerboard plate reading, Average values” (Ciprofloxacin 12.5 nM + LEI-800 6.2 µM) was 0.142, the “checkerboard plate reading, Average values” (Ciprofloxacin 12.5 nM + LEI-800 […]) was 0.4663 and the “checkerboard plate reading, Average values” [17] was 0.8434. For the same compound, the “checkerboard plate reading, replicate wells” value [17] was 0.9002 and 0.8407 and 0.7891, the “checkerboard plate reading, Average values” [18] was 0.7231 and the “checkerboard plate reading, replicate wells” value [18] was 0.7425 and 0.7229 and 0.7038. For the same compound, the “checkerboard plate reading, Average values” [19] was 0.6746, the “checkerboard plate reading, replicate wells” value [19] was 0.7088 and 0.6616 and 0.6533 and the “checkerboard plate reading, Average values” [20] was 0.6549. The “checkerboard plate reading, replicate wells” value [20] was 0.6481 and 0.6316 and 0.685, the “checkerboard plate reading, Average values” [21] was 0.6861 and the “checkerboard plate reading, replicate wells” value [21] was 0.7976 and 0.6273 and 0.6333. The “checkerboard plate reading, Average values” [22] was 0.2871, the “checkerboard plate reading, replicate wells” value [22] was 0.2705 and 0.2575 and 0.3334 and the “checkerboard plate reading, Average values” [23] was 0.1517. The “checkerboard plate reading, replicate wells” value [23] was 0.149 and 0.1483 and 0.1579, the “checkerboard plate reading, Average values” (Ciprofloxacin 25 nM + LEI-800 […]) was 0.5325 and the “checkerboard plate reading, Average values” [24] was 0.8946. The “checkerboard plate reading, replicate wells” value [24] was 0.9376 and 0.8747 and 0.8715, the “checkerboard plate reading, Average values” [25] was 0.7443 and the “checkerboard plate reading, replicate wells” value [25] was 0.7759 and 0.7241 and 0.7328. For the same compound, the “checkerboard plate reading, Average values” [26] was 0.6725, the “checkerboard plate reading, replicate wells” value [26] was 0.6624 and 0.6684 and 0.6868 and the “checkerboard plate reading, Average values” [27] was 0.6531. For the same compound, the “checkerboard plate reading, replicate wells” value [27] was 0.6441 and 0.64 and 0.6751, the “checkerboard plate reading, Average values” [28] was 0.7311 and the “checkerboard plate reading, replicate wells” value [28] was 0.701 and 0.7232 and 0.7691. The “checkerboard plate reading, Average values” [29] was 0.2841, the “checkerboard plate reading, replicate wells” value [29] was 0.2522 and 0.2675 and 0.3325 and the “checkerboard plate reading, Average values” [30] was 0.151. For the same compound, the “checkerboard plate reading, replicate wells” value [30] was 0.1483 and 0.1495 and 0.1553 and the “checkerboard plate reading, Average values” (Ciprofloxacin 50 nM + LEI-800 […]) was 0.6545.
